Source: patent US20250101052A1, “COMPOUND FOR EGFR KINASE INHIBITOR, COMPOSITION, AND USE THEREOF” (INNOVATION INSTITUTE FOR ARTIFICIAL INTELLIGENCE IN …, priority 2021, published 2025)

Legend:
[1] = Detection of oral plasma exposure in rats; format: in vivo; settings: rat, SD rats, p.o. 10 mg/kg
Experimental: Detection of oral plasma exposure in rats: The compounds of the present invention have good oral in-vivo exposure in rats
After a single dose of 10 mg/kg oral administration of the compound to be tested in SD rats, blood samples were collected at different time points.
Standard curve and quality control sample preparation processing: The mixed reserve solution of the compound to be tested was taken and diluted with 50% methanol water into standard working solutions containing respective compounds with concentrations of 20, 40, 100, 200, 400, 1000, 2000, 4000, 10000, and 20000 ng/mL, as well as 60, 600, and 16000 ng/mL quality control working solutions. […] of a blank matrix was taken. […] of the standard curve working solutions and the quality control working solutions were added to prepare standard curves containing respective compounds with concentrations of 1.00, 2.00, 5.00, 10.00, 20.00, 50.00, 100.00, 200.00, 500.00, and 1000.00 ng/mL, as well as quality control samples with concentrations of 3.00, 30.00, and 800.00 ng/mL, respectively. 400 μL of acetonitrile (containing internal standard Verpmil of 2 ng/mL) was added. After vortex oscillation at 700 rcf for 10 minutes, centrifugation was conducted at 3300 rcf at 4° C. for 10 minutes. The supernatant was taken for LC-MS/MS analysis.
Unknown sample preparation processing: 50 μL of the sample to be tested was taken. 400 μL of acetonitrile (containing internal standard Verpmil of 2 ng/mL) was added. After vortex oscillation at 700 rcf for 10 minutes, centrifugation was conducted at 3300 rcf and 4° C. for 10 minutes. The supernatant was taken for LC-MS/MS analysis.

[2] = molecular target: EGFR^L858R/T790M/C797S kinase (Homo sapiens (Human), UniProt P00533, C797S/L858R/T790M); assay: EGFR^L858R/T790M/C797S kinase inhibitory activity experiment; format: biochemical; settings: in vitro
Sequence of EGFR^L858R/T790M/C797S kinase (P00533 25-1210 T790M/C797S/L858R): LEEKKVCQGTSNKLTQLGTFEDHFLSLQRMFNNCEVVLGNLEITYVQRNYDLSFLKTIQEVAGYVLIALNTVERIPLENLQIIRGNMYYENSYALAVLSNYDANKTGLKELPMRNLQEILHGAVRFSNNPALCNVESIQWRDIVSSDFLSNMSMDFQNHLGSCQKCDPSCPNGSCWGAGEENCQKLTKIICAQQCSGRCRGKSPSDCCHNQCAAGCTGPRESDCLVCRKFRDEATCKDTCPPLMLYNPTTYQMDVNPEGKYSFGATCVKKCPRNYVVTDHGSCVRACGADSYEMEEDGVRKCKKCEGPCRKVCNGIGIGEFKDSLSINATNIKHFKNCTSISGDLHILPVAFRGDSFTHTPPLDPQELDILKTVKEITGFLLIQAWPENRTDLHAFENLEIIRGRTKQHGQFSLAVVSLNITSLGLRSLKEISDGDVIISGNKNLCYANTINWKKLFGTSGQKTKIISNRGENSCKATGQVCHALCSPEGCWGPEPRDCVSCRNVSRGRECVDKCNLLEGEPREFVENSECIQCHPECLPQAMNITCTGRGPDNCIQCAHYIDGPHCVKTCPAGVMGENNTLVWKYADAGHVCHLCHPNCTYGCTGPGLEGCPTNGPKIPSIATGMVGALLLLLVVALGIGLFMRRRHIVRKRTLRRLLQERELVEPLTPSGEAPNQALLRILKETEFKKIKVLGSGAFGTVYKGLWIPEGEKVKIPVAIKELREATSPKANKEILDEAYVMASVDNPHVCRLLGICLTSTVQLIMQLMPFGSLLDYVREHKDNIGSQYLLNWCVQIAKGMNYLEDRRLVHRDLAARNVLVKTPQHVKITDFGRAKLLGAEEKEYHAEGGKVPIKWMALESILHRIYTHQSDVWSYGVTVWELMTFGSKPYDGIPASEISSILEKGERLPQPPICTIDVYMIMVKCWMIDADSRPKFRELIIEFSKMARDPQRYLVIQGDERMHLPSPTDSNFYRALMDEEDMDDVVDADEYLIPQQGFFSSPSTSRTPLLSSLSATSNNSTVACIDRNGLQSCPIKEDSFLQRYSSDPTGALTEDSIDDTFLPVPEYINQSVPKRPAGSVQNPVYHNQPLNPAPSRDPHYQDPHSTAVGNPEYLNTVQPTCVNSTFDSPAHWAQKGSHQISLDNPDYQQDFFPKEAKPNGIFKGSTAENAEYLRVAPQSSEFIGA
How it was run: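 Human EGFR L858R/T790M/C797S mutant preincubated 10 min with compound (10-point dilution from 1 μM), then reacted 60 min at room temperature with ATP and kinase substrate 22. Substrate conversion read by Caliper mobility shift. % inhibition normalized to no-enzyme and no-compound wells, with IC50 from variable-slope log(inhibitor) fit.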

Compound	AUC(0-t) [1] [ng·h/mL]	Cmax [1] [ng/mL]	Tmax [1] [h]	half-life [1] [h]	IC50 [2] [nM]	AUC(0-inf) ([1]; read-out: AUCINF—obs) [ng·h/mL]
CCc1cc(Nc2ncc(Cl)c(Nc3ccc(C)c(C)c3P(C)(C)=O)n2)c(OC)cc1N1CC2(CCN(C)CC2)C1 [Compound 24, (6-((5-Chloro-2-((5-ethyl-2-methoxy-4-(7-methyl-2,7-diazaspiro[3.5]non-2-yl)phenyl)amino)pyrimidin-4-yl)amino)-2,3-dimethylphenyl)dimethylphosphine oxide]	7870	505	9	9.48	0.55	–
CCc1cc(Nc2ncc(Cl)c(Nc3ccc(C)c(C)c3P(C)(C)=O)n2)c(OC)cc1N1CCC(N2CCN(C)CC2)CC1 [Comparative Compound A, reference compound]	–	–	–	–	0.54	–
CCc1cc(Nc2ncc(Cl)c(Nc3ccc(C)c(C)c3P(C)(C)=O)n2)c(OC)cc1N1CCC2(CC1)CC(N(C)C)C2 [Compound 6, (6-((5-chloro-2-((4-(2-(dimethylamino)-7-azaspiro[3.5]nonan-7-yl)-5-ethyl-2-methoxyphenyl)amino)pyrimidin-4-yl)amino)-2,3-dimethylphenyl)dimethylphosphine oxide]	13800	866	8	9.72	0.88	17700
CCc1cc(Nc2ncc(Cl)c(Nc3ccc(C)c(C)c3P(C)(C)=O)n2)c(OC)cc1N1CCC(N2C[C@H]3CC[C@@H](C2)N3C)CC1 [Compound 51, (6-((5-chloro-2-((5-ethyl-2-methoxy-4-(4-((1R,5S)-8-methyl-3,8-diazabicyclo[3.2.1]octan-3-yl)piperidin-1-yl)phenyl)amino)pyrimidin-4-yl)amino)-2,3-dimethylphenyl)dimethylphosphine oxide]	20700	1220	4	9.47	0.0452	–
